Series [1] deals with hepatoma cells Huh7. Put plainly: Cancer cell growth, Alamar Blue assay, Huh7. To be noted: Huh7, 48 hr culture. Format: cell-based. The source says: (§1) Cell lines and cell culture. A549, Hela, MCF-7, Huh7, C2BBe1, BxPC-3, A375.S2, CCRF-CEM, TrampC1 and NIH 3T3 cells were obtained from the American Type Culture Collection (ATCC; Manassas, Va., USA). A549, Hela, Huh7, A375.S2, TrampC1, and NIH 3T3 cells were maintained in Dulbecco's minimal essential medium (DMEM) supplemented with 1.5 g/L sodium bicarbonate,10% fetal bovine serum (FBS), 1.0% antibiotic-antimycotic, L-glutamine (2.0×10^−3 M), and 1.0% nonessential amino acids. MCF-7, BxPC-3 and CCRF-CEM cells were cultured in Roswell Park Memorial Institute (RPMI) medium supplemented with 10% FBS, and 1.0% antibiotic-antimycotic. C2BBe1 cells were grown in DMEM 1.5 g/L sodium bicarbonate, 1.0% antibiotic-antimycotic, L-glutamine (2.0×10^−3 M), and 1.0% nonessential amino acids, 10 mg/L human holo-transferrin, and 10% fetal bovine serum. The cell number and viability of the cells were determined by the trypan blue exclusion method and Alamar Blue assay, respectively.
(§2) The assay is designed to measure quantitatively the proliferation of cell by use of a fluorometric/colorimetric growth indicator based on detection of metabolic activity. Specifically, the alamar blue system incorporates an oxidation-reduction (REDOX) indicator that both fluoresces and changes color in response to chemical reduction of growth medium resulting from cell growth. As cells being tested grow, innate metabolic activity results in a chemical reduction of the system. Continued growth maintains a reduced environment while inhibition of growth maintains an oxidized environment. Reduction related to growth causes the REDOX indicator to change from oxidized (non-fluorescent, blue) form to reduced (fluorescent, red) form.
(§3) Cell viability was determined by Alamar Blue assay in accordance with the manufacturer's protocols.

Series [2] has as its system lung cancer cells A549. Put plainly: Cancer cell growth, Alamar Blue assay, A549. Conditions: A549, 48 hr culture. Format: cell-based.
Text: as §1, §2, §3

The test system of series [3] is cervical cancer cells Hela. Put plainly: Cancer cell growth, Alamar Blue assay, HeLa. Format: cell-based. Conditions: 48 hr culture.
Text: as §1, §2, §3
On the technique in general: Resazurin is reduced to fluorescent resorufin, in cell work by metabolically active cells.

In series [4] the test system is pancreatic cancer cells BxPC3. Put plainly: Cancer cell growth, Alamar Blue assay, BxPC3. To be noted: BxPC3, 48 hr culture. The series is classed as cell-based.
Text: as §1, §2, §3

The subject of series [5] is A375.S2 cells. Put plainly: Cancer cell growth, Alamar Blue assay, A375. Format: cell-based. To be noted: A375, 48 hr culture.
Text: as §1, §2, §3

Series [6] relates to breast cancer cells MCF7. Put plainly: Cancer cell growth, Alamar Blue assay, MCF7. The series is classed as cell-based. Conditions: MCF7, 48 hr culture.
Text: as §1, §2, §3

A short description of series [7]: Degradation of drugs, standing in water for 48 hrs (HPLC or ICP MS). The series is classed as physicochemical. Conditions: standing for 48 hrs. As for the experimental part: In this example, the degradation of drug molecules encapsulated in the drug containing vesicles and that of free drugs were investigated. To this purpose, the drug containing vesicles of examples 1.2 or 1.3 or the free drug were placed in water, and let standing for 48 hrs, then the amounts of each drugs in the water were measured by HPLC or ICP MS.

Series [8] relates to colon cancer cells C2BBE1. Put plainly: Cancer cell growth, Alamar Blue assay, C2BBE1. The series is classed as cell-based. To be noted: C2BBE1, 48 hr culture.
Text: as §1, §2, §3

For series [9] the following is noted: free drug; cited from earlier work.

Data on six compounds can be found in patent publication US20200289425A1, “CARBON DOT LIPOSOMES AND USES THEREOF” (National Taiwan University, priority 2017, published 2020).

pIC50: −log10 of the molar value.

Turning to `CC(C)C[C@H](NC(=O)[C@H](CCc1ccccc1)NC(=O)CN1CCOCC1)C(=O)N[C@@H](Cc1ccccc1)C(=O)N[C@@H](CC(C)C)C(=O)[C@@]1(C)CO1` [Carfilzomib], the pIC50 in series [1] (Homo sapiens, Huh-7) was 6.15; in series [2] (Homo sapiens) it was 5.74; in [3] (Homo sapiens), 5.89; in series [4] (Homo sapiens, BXPC-3), 7.10; in series [5] (A375-S2), 3.12; in [6] (Homo sapiens) it was 7.00. For the same compound, the pIC50 in [8] (Homo sapiens) is 5.80. Besides, in [7], the “Percentage of drugs remained un-degraded” value is 48.5%.

`N.N.[Cl][Pt][Cl]` [Cisplatin]: the pIC50 in series [1] was 5.20; in [2], 5.19; in series [3], 5.51; in series [4], 5.32; in series [5], 5.04; in series [6], 4.48. The pIC50 in series [8] is 4.96.

With `CC(=O)O[C@@]12CO[C@@H]1C[C@H](O)[C@@]1(C)C(=O)[C@H](O)C3=C(C)[C@@H](OC(=O)[C@H](O)[C@@H](NC(=O)OC(C)(C)C)c4ccccc4)C[C@@](O)([C@@H](OC(=O)c4ccccc4)[C@H]21)C3(C)C` [Docetaxel], the pIC50 in series [1] (Homo sapiens, Huh-7) is 8.00; in series [2] (Homo sapiens), 6.00; in series [3] (Homo sapiens), 6.17; in series [4] (Homo sapiens, BXPC-3) it was 5.33; in series [5] (A375-S2), 4.54; in series [6] (Homo sapiens), 5.20. The compound also gave a pIC50 in series [8] (Homo sapiens) of 4.00. Besides, the “Solubility of the anti-cancer drug” value in [9] is recorded as 0.27 mg/L. For the same compound, the “Percentage of drugs remained un-degraded” value in series [7] is given as 83.6%.

`COc1cccc2c1C(=O)c1c(O)c3c(c(O)c1C2=O)C[C@@](O)(C(=O)CO)C[C@@H]3O[C@H]1C[C@H](N)[C@H](O)[C@H](C)O1` [Doxorubicin]: the pIC50 in series [1] (Homo sapiens, Huh-7) is 6.31; in series [2] (Homo sapiens), 7.40; in series [3] (Homo sapiens), 5.77; in series [4] (Homo sapiens, BXPC-3) it was 6.24; in series [5] (A375-S2), 6.12; in series [6] (Homo sapiens), 5.70. This compound gave a pIC50 in [8] (Homo sapiens) of 4.89. In addition, the “Solubility of the anti-cancer drug” value in series [9] is 2,600 mg/L. The “Percentage of drugs remained un-degraded” value in series [7] is given as 69.5%.

For `Nc1ccn([C@@H]2O[C@H](CO)[C@@H](O)C2(F)F)c(=O)n1` [Gemcitabine], the pIC50 in series [1] (Homo sapiens, Huh-7) was 6.00; in series [2] (Homo sapiens) it was 4.77; in series [3] (Homo sapiens), 4.03; in [4] (Homo sapiens, BXPC-3), 4.29; in series [5] (A375-S2), 4.18; in series [6] (Homo sapiens), 4.32. For the same compound, the pIC50 in series [8] (Homo sapiens) is 3.77. For the same compound, the “Solubility of the anti-cancer drug” value in series [9] is reported as 51,000 mg/L. Further, the “Percentage of drugs remained un-degraded” value in [7] was 58.8%.

`CC(=O)O[C@H]1C(=O)[C@@]2(C)[C@H]([C@H](OC(=O)c3ccccc3)[C@]3(O)C[C@H](OC(=O)[C@H](O)[C@@H](NC(=O)c4ccccc4)c4ccccc4)C(C)=C1C3(C)C)[C@]1(OC(C)=O)CO[C@@H]1C[C@@H]2O` [Paclitaxel]: in [9], the “Solubility of the anti-cancer drug” value is recorded as 5.6 mg/L.

What is called pIC50 is the negative decadic logarithm of the IC50, by convention in mol/L.
